Patent US12559474B2, “Triazine derivatives having virus replication inhibitory activity and pharmaceutical composition comprising the same” (priority 2021, dated 2026)
Where two headings read alike, the source gives them in different places.

Legend:
[1] = system: SARS-CoV-2; test: microbe, parasite or virus in culture; assay type: cell-based; settings: Severe acute respiratory syndrome coronavirus 2, VeroE6/TMPRSS2, 72 h, 50% SARS-CoV-2 infected cell death inhibitory concentration, VeroE6/TMPRSS2 cells, 3 days culture
[2] = target: SARS-CoV-2 3CL protease (Severe acute respiratory syndrome coronavirus 2, UniProt P0DTD1); test: biochemical; settings: 50% SARS-CoV-2 3CL protease inhibitory concentration, read-out: IC50

Structure (SMILES) | EC50 ([1]; class symbols) [nM] | IC50 ([2]; given as class symbols) [nM] | EC50 ([1]; CellTiter-Glo 2.0) [nM] | IC50 ([2]; RapidFire MS) [nM]
CNc1nc2cc(Cl)c(Nc3nc(=O)n(Cc4ncn(C)n4)c(=O)n3Cc3cc(F)c(F)c(F)c3)cc2o1 [II-0061] | 1000 to 10000 | < 100 |  | 
Cn1cnc(Cn2c(=O)nc(Nc3cc4cn(CC(F)F)nc4cc3F)n(Cc3cc(F)c(F)c(Cl)c3)c2=O)n1 [II-0466] | 1000 to 10000 | < 100 |  | 
O=c1[nH]cc(Cn2c(=O)nc(Nc3cc4c(cc3Cl)OCC4)n(Cc3cc(F)c(F)c(F)c3)c2=O)c(=O)[nH]1 [Compound I-0406] | 1000 to 10000 | < 100 |  | 
Cc1cncc(-n2c(=O)nc(Nc3cc4cn(CC(F)F)nc4cc3F)n(Cc3cc(F)c(F)c(Cl)c3)c2=O)c1 [II-0058] | < 1000 | < 100 |  | 
Cc1cncc(-n2c(=O)nc(Nc3cc4c(cc3Cl)nc(C)n4C)n(Cc3cc(F)c(F)c(F)c3)c2=O)c1 [II-0356] | 1000 to 10000 | < 100 |  | 
Cn1cc2cc(Nc3nc(=O)n(-c4cncc(Cl)c4)c(=O)n3Cc3ccc(F)c(C#N)c3)ccc2n1 [II-0608] |  |  | 487 | 19
Cn1cnc(Cn2c(=O)nc(Nc3cc4cn(C)nc4cc3F)n(Cc3cc(F)c(F)c(F)c3)c2=O)n1 [II-0064] | 1000 to 10000 | < 100 |  | 
COc1ccc(Nc2nc(=O)n(Cc3ncc(C)s3)c(=O)n2Cc2cc(F)c(F)c(F)c2)cc1 [Compound I-0339] | 1000 to 10000 | 100 to 1000 | 8000 | 610
CNc1nc2cc(F)c(Nc3nc(=O)n(-c4cncc(C)c4)c(=O)n3Cc3cc(F)c(F)cc3F)cc2s1 [II-0501] | < 1000 | < 100 |  | 
Cn1cnc(Cn2c(=O)nc(Nc3cc4cn(Cc5ccccn5)nc4cc3Cl)n(Cc3cc(F)c(F)c(Cl)c3)c2=O)n1 [II-0006] | 1000 to 10000 | < 100 |  | 
COc1ccc(Nc2nc(=O)n(Cc3ccc[nH]c3=O)c(=O)n2Cc2cc(F)c(F)c(F)c2)c(C)c1 [Compound I-0129] | 1000 to 10000 | < 100 |  | 
CNc1nc2cc(F)c(Nc3nc(=O)n(Cc4ncn(C)n4)c(=O)n3Cc3cc(F)c(F)cc3F)cc2s1 [II-0400] | 1000 to 10000 | < 100 |  | 
COc1ccc(Nc2nc(=O)n(Cc3ccc[nH]c3=O)c(=O)n2Cc2cc(Cl)c(F)cc2F)cc1 [Compound I-0226] | 1000 to 10000 | < 100 |  | 
Cn1cnc(Cn2c(=O)nc(Nc3cc4c(-n5cccn5)n(C)nc4cc3Cl)n(Cc3cc(F)c(F)cc3F)c2=O)n1 [II-0461] | 1000 to 10000 | < 100 |  | 
Cn1cnc(Cn2c(=O)nc(Nc3cc4sc(NCC(F)F)nc4cc3Cl)n(Cc3cc(F)c(F)c(Cl)c3)c2=O)n1 [II-0243] | 1000 to 10000 | < 100 |  | 
Cc1cc2c(cc1Nc1nc(=O)n(-c3cncc4ccccc34)c(=O)n1Cc1ccc(F)c(C#N)c1)CCO2 [II-0160] | < 1000 | < 100 |  | 
CNc1nc2cc(Cl)c(Nc3nc(=O)n(Cc4ncccn4)c(=O)n3Cc3cc(Cl)c(F)cc3F)cc2s1 [II-0239] | 1000 to 10000 | < 100 |  | 
Cn1cnc(Cn2c(=O)nc(Nc3cc4sc(NC5CC5)nc4cc3Cl)n(Cc3cc(F)c(F)cc3F)c2=O)n1 [II-0306] |  |  | 410 | 5.1
Cc1cncc(-n2c(=O)nc(Nc3cc4cn(C)nc4cc3Cl)n(Cc3cc(C#N)ccc3F)c2=O)c1 [II-0301] | < 1000 | < 100 |  | 

Structure (SMILES) | EC50 ([1]; class symbols) [nM] | IC50 ([2]; given as class symbols) [nM] | EC50 ([1]; CellTiter-Glo 2.0) [nM] | IC50 ([2]; RapidFire MS) [nM]
Cc1cncc(-n2c(=O)nc(Nc3ccc4nn(CC(F)F)cc4c3)n(Cc3cc(C#N)c(F)cc3C)c2=O)c1 [II-0278] |  |  | 170 | 3.1
N#Cc1cc(Cn2c(Nc3ccc4ncccc4c3)nc(=O)n(-c3cncc4ccccc34)c2=O)ccc1F [II-0200] | 1000 to 10000 | < 100 |  | 
Cc1cc(F)cc(Cn2c(Nc3cc4cn(C)nc4cc3Cl)nc(=O)n(-c3cncc(C)c3)c2=O)c1 [II-0212] | < 1000 | < 100 |  | 
O=c1[nH]cc(Cl)cc1Cn1c(=O)nc(Nc2cc3c(cc2Cl)OCC3)n(Cc2cc(F)c(F)c(F)c2)c1=O [Compound I-0391] |  |  | 460 | 7.6
CNc1nc2ccc(Nc3nc(=O)n(-c4cncc(C)c4)c(=O)n3Cc3cc(C#N)c(F)cc3C)cc2s1 [II-0420] | < 1000 | < 100 |  | 
CC(C)(O)Cn1cc2cc(Nc3nc(=O)n(Cc4ncccn4)c(=O)n3Cc3cc(Cl)c(F)cc3F)c(Cl)cc2n1 [II-0240] | 1000 to 10000 | < 100 |  | 
Cn1cnc(Cn2c(=O)nc(Nc3cc4c(C(F)F)n(C)nc4cc3Cl)n(Cc3cc(F)c(F)cc3F)c2=O)n1 [II-0514] | 1000 to 10000 | < 100 |  | 
Cc1cncc(-n2c(=O)nc(Nc3cc4cn(C)nc4cc3Cl)n(Cc3cc(Cl)cc(C#N)c3)c2=O)c1 [II-0186] | 1000 to 10000 | < 100 |  | 
CNc1nc2cc(Cl)c(Nc3nc(=O)n(Cc4ncn(C)n4)c(=O)n3Cc3cc(F)c(F)c(Cl)c3)cc2s1 [II-0235] | 1000 to 10000 | < 100 |  | 
Cn1cnc(Cn2c(=O)nc(Nc3cc4c(cc3Cl)OCC4)n(Cc3cc(F)c(F)c(Cl)c3)c2=O)n1 [II-0046] | < 1000 | < 100 |  | 
Cc1cncc(-n2c(=O)nc(Nc3ccc4nn(CC(F)F)cc4c3)n(Cc3ccc(F)c(C#N)c3)c2=O)c1 [Compound I-0355] | < 1000 | < 100 | 339 | 8.7
CCn1cc2cc(Nc3nc(=O)n(-c4cncc(C)c4)c(=O)n3Cc3ccc(F)c(C#N)c3)ccc2n1 [II-0010] |  |  | 940 | 19
Cc1cncc(-n2c(=O)nc(Nc3cc4c(cc3Cl)nc(C(F)F)n4C)n(Cc3ccc(F)c(C#N)c3)c2=O)c1 [II-0106] | 1000 to 10000 | < 100 |  | 
CC1c2ccccc2CN1c1nc(=O)n(Cc2ccc[nH]c2=O)c(=O)n1Cc1cc(F)c(F)c(F)c1 (stereo not drawn) [II-0213] | 1000 to 10000 | < 100 |  | 
COc1ccc(Nc2nc(=O)n(Cc3cc(C(F)(F)F)c[nH]c3=O)c(=O)n2Cc2cc(F)c(F)c(F)c2)cc1 [Compound I-0307] | < 1000 | 100 to 1000 |  | 440
O=c1[nH]c2sccc2cc1Cn1c(=O)nc(Nc2cc3cn(CCO)nc3cc2Cl)n(Cc2cc(F)c(F)c(F)c2)c1=O [II-0031] | 1000 to 10000 | < 100 |  | 
N#Cc1cc(Cn2c(Nc3cc4cn(CCO)nc4cc3Cl)nc(=O)n(-c3cccc4ccccc34)c2=O)ccc1F [Compound I-0435] | 1000 to 10000 | < 100 |  | 
COc1ccc(Nc2nc(=O)n(Cc3ccc[nH]c3=O)c(=O)n2Cc2cc(Cl)cc(Cl)c2)cc1 [Compound I-0213] | 1000 to 10000 | < 100 |  | 
Cc1nc2cc(C)c(Nc3nc(=O)n(Cc4ccc[nH]c4=O)c(=O)n3Cc3cc(F)c(F)c(F)c3)cc2s1 [Compound I-0116] | 1000 to 10000 | < 100 |  | 

Structure (SMILES) | EC50 ([1]; class symbols) [nM] | IC50 ([2]; given as class symbols) [nM] | EC50 ([1]; CellTiter-Glo 2.0) [nM] | IC50 ([2]; RapidFire MS) [nM]
COc1cc(F)c(F)cc1Cn1c(Nc2cc3cn(C)nc3cc2Cl)nc(=O)n(-c2cncc(C)c2)c1=O [II-0520] | 1000 to 10000 | < 100 |  | 
Cc1cncc(-n2c(=O)nc(Nc3cc4c(C#N)n(C)nc4cc3Cl)n(Cc3ccc(F)c(C#N)c3)c2=O)c1 [II-0368] | 1000 to 10000 | < 100 |  | 
Cn1cnc(Cn2cc3cc(Nc4nc(=O)n(Cc5ncn(C)n5)c(=O)n4Cc4cc(Cl)c(F)cc4F)c(Cl)cc3n2)n1 [II-0003] |  |  | 17800 | 6
Cn1cnc(Cn2c(=O)nc(Nc3cc4cn(C)nc4cc3Cl)n(Cc3cc(F)cc(Cl)c3)c2=O)n1 [II-0051] | 1000 to 10000 | < 100 |  | 
Cc1cncc(-n2c(=O)nc(Nc3cc4cccnc4cc3Cl)n(Cc3ccc(F)c(C#N)c3)c2=O)c1 [II-0463] | < 1000 | < 100 |  | 
COC(=O)COc1ccc(Nc2nc(=O)n(Cc3ccc[nH]c3=O)c(=O)n2Cc2cc(F)c(F)c(F)c2)c(Cl)c1 [Compound I-0462] | 1000 to 10000 | < 100 |  | 
Cc1cc(F)c(Cl)cc1Cn1c(Nc2cc3cn(C)nc3cc2Cl)nc(=O)n(Cc2ncn(C)n2)c1=O [II-0044] | < 1000 | < 100 |  | 
Cc1cncc(-n2c(=O)nc(Nc3cc4sc(C)nc4cc3C)n(Cc3ccc(F)c(C#N)c3)c2=O)c1 [II-0191] | < 1000 | < 100 |  | 
Cc1cc2nn(C)cc2cc1Nc1nc(=O)n(-c2cncc3ccccc23)c(=O)n1Cc1ccc(F)c(C#N)c1 [Compound I-0431] | < 1000 | < 100 |  | 
Cc1cncc(-n2c(=O)nc(Nc3cc4cn(C)nc4cc3Cl)n(Cc3ccc(F)c(Br)c3)c2=O)c1 [II-0597] | < 1000 | < 100 |  | 
Cc1cncc(-n2c(=O)nc(Nc3cc4cn(CC(F)F)nc4cc3Cl)n(Cc3ccc(F)c(C#N)c3)c2=O)c1 [II-0089] |  |  | 182 | 3.6
O=c1[nH]cccc1Cn1c(=O)nc(NC2CCOCC2)n(Cc2cc(F)c(F)c(F)c2)c1=O [Compound I-0132] | < 1000 | 1000 to 10000 |  | 2300
Cn1cc2cc(Nc3nc(=O)n(-c4cncc(Cl)c4)c(=O)n3Cc3cc(C#N)c(F)cn3)c(Cl)cc2n1 [II-0538] | 1000 to 10000 | < 100 |  | 
Cn1cnc(Cn2c(=O)nc(Nc3cc4cn(C)nc4cc3Cl)n(Cc3cc(F)c(F)c(Cl)c3)c2=O)n1 [II-0045] |  |  | 218 | 4.7
Cc1nc2cc(Cl)c(Nc3nc(=O)n(Cc4cc5ccsc5[nH]c4=O)c(=O)n3Cc3cc(F)c(F)c(F)c3)cc2n1C [Compound I-0390] | 1000 to 10000 | < 100 | 3160 | 4
Cn1cc2cc(Nc3nc(=O)n(-c4cncc(C#N)c4)c(=O)n3Cc3ccc(F)c(C#N)c3)c(Cl)cc2n1 [II-0486] | 1000 to 10000 | < 100 |  | 
Cc1cncc(-n2c(=O)nc(Nc3cc4c(cc3Cl)nc(C)n4C)n(Cc3ccc(F)c(C#N)c3)c2=O)c1 [II-0350] | 1000 to 10000 | < 100 |  | 
C=Cc1cc(Cn2c(Nc3cc4cn(C)nc4cc3Cl)nc(=O)n(-c3cncc(C)c3)c2=O)ccc1F [II-0587] | < 1000 | < 100 |  | 
